The values below come from publication PMC3079562 (Nature chemical biology, 2011).

The target of the assay is T1, NosL (Streptomyces actuosus, UniProt C6FX51).
T1 sequence (C6FX51 1-400): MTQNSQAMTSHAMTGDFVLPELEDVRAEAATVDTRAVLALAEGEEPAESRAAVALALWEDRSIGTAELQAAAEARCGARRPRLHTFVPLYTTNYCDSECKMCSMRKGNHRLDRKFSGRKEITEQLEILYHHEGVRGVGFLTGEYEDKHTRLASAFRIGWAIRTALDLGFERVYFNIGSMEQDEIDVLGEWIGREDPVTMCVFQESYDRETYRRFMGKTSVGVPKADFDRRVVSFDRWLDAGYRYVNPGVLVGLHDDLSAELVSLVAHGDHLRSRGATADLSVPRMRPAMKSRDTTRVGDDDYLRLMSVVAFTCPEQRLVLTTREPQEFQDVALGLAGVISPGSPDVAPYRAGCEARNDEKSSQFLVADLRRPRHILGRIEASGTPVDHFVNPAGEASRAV
The note with it: with L-Trp; otherwise same.

On to `C[S+](CC[C@H](N)C(=O)O)C[C@H]1O[C@@H](n2cnc3c(N)ncnc32)[C@H](O)[C@@H]1O` (stereo partly shown) [S-AdoMet], for which the “HPLC-MS of product 5'-deoxyadenosine” value was “S-AdoMet consumption was independent of L-Trp, but significantly enhanced by adding L-Trp”.
